One experiment deals with dog STING (dSTING). Nature of the experiment: Dog differential scanning fluorimetry (DSF) assay, thermal shift of dog STING protein. The experiment is classed as binding. The settings on record: 100 μM compound, 3 μM recombinant dog STING (residues 149 to 375), 5× SYPRO Orange, 2% DMSO. An excerpt: The protein used for the biophysical experiments was a recombinant dog STING protein comprising its cytosolic cGAMP binding ectodomain. A codon optimized DNA sequence (for expression in Escherichia coli) encoding amino acid residues 149 to 375 of dog STING was synthesized by GeneArt (Regensburg, Germany) and inserted into a pET17b E. coli expression vector. The protein construct encodes an N-terminal 8× His-tag followed by tobacco etch virus protease (TEV) cleavage site and the above STING gene sequence. The resulting protein sequence for the used dog STING protein (SEQ ID No. 1) is listed below:
For expression of the above recombinant dog STING, the construct was transformed into E. coli BL21 DE3 strain and grown in shake flasks in LB-medium at 15° C. Expression was induced by addition of isopropyl β-D-1-thiogalactopyranoside to a final concentration of 1 mM and cultures shaken overnight. Cell pellets were centrifuged and stored at −70° C. until further use. Protein was purified by cell thawing in lysis buffer (20 mM TRIS-HCl, pH 8, 500 mM NaCl, 1 mM DTT, 0.5 mg/ml lysozyme, Complete Protease Inhibitor (Roche) and DNase (Roche)), followed by metal affinity purification using Ni-NTA resins and elution buffer consisting of 20 mM TRIS-HCl, pH 8, 500 mM NaCl, 1 mM DTT, 300 mM imidazole. Cleavage of the His-Tag using TEV-protease took place during dialysis in size exclusion buffer (20 mM TRIS-HCl, pH 8, 100 mM NaCl, 1 mM DTT) over night. To further purify the target protein a reverse Nickel affinity column was used and the flow through was applied to a size exclusion chromatography. The peak fraction was collected and concentrated to 5 mg/mL.
Dye fluorescence is quenched in aqueous environment and increases upon association of the dye with the hydrophobic parts of the unfolding protein. […] The inflection point of the curve represents the “melting” temperature of the protein (Tm) which is calculated numerically using the Boltzmann equation.
The thermal stability of the dog STING protein was measured in assay buffer containing 20 mM Tris, 150 mM NaCl at pH7.5. The assay uses 384-Well qPCR Plates (Catalog #781358, BRAND), Microseal®‘B’ Adhesive Seals for PCR Plates (Catalog #MSB-1001, BIO-RAD) and was run on a CFX384 Real-Time System (Bio-Rad). A DMSO stock solution of SYPRO orange (SIGMA 55692-500UL) was prepared. Compound stock solutions (10 mM in DMSO) were diluted 1:2 in DMSO to an intermediate compound concentration of 5 mM and then further diluted 1:40 in assay buffer resulting in a compound concentration of 125 μM and 2.5% DMSO. Fluorescent dye stock solution (5000× SYPRO Orange) was then mixed with target protein and buffer to a concentration of 15 μM Protein and 25× SYPRO Orange. 2 μl of this protein-dye-mixture was added to 8 μl compound solution. Final volume was 10 μL. 3-6 well positions were used as negative control (protein with 2% DMSO). The plates were prepared for duplicate measurement and centrifuged for 2 min at 1000 g. In the measurement, 160 cycles of 0.5° C. were used (temperature ramp 15 s/cycle, 15° C. to 95° C.).
Final Assay concentrations for compound characterization were 100 μM compound, 3 μM target protein, 5× SYPRO Orange, and 2% DMSO in 10 μl. All dispensing steps were performed using a HamiltonStar pipetting robot (Hamilton).
Dissociation curves were processed in Bio-Rad CFX Manager. Peak type was set to “negative”. Compound codes for screen were assigned in the plate layout.
Two replicates of TM measurements were averaged, and the standard deviation was calculated. In cases of SD>1.5° C. the measurement was repeated.
The melting point (Tm) obtained for STING protein alone was subtracted from T obtained for protein incubated with ligand to generate ΔTm values.

The next experiment has as its system STING. Kind of experiment: Dog whole blood (dWB) assay, IFNb secretion by ELISA. The experiment is classed as cell-based. The settings on record: Canis lupus familiaris, 4 h incubation at 37° C., % control relative to cGAMP stimulated control, read-out: EC50, cytokine secretion in dog whole blood (dWB) culture system as determined by canine Interferon-beta (IFNb) ELISA. The procedure: In this assay, freshly collected canine blood is incubated with a STING agonist, and interferon beta levels in the supernatant are quantified by ELISA. […] In accordance with the invention, a combination of a high dDSF and low dWB is especially favorable.
For the detection of STING activation in physiological environment dog whole blood (dWB) was stimulated by the cyclic dinucleotide cGAMP or a test compound. Pathway activity was monitored by measuring the IFNb production.
Compounds were delivered as 10 mM DMSO solution, diluted and transferred by using an Echo acoustic dispenser to the 384well assay plate (Greiner #781182), pre-filled with 10 μl 1× HBSS in each well (10× HBSS (+Ca/+Mg), #14065-049, Gibco). Typically, 8 concentrations were used with the highest concentration at 10 μM in the final assay volume followed by approximately 1:4 dilution steps. DMSO concentration was set to 0.1% in the final assay volume. The 384-well assay plate contained 20 test compounds and DMSO in control and cGAMP standard wells. The dog whole blood was collected as Na-Citrate blood (e.g., 3.8% in Monovettes from Sarstedt) and kept at 4° C. overnight until use in the assay. 80 μl of the whole blood samples were transferred to each well of the 384-well assay plates filled with compound/1×HBSS. Blood plates were kept at room temperature for 60 minutes and continuous shaking with 450 rpm, covered with the lid, but not sealed. A 10× cGAMP assay solution was diluted from a 2 mM stock solution in 1×HBSS immediately before use at room temperature. 10 μl of the 10× cGAMP/HBSS were added to the high control wells, whereas HBSS only was added to all compound and low control wells. After covering assay plates with the lid, blood plates were kept for a 4 h incubation at 37° C. in the incubator, without shaking. For the detection of IFNb in dog plasma the ELISA Kit for Canine Interferon Beta (Biotrend #SEA222Ca) was used. Whole blood assay plates were centrifuged at 1000 g for 10 minutes at 8° C. 40 μl of supernatant was transferred with a 96 well pipetting robotics from the 384 well whole blood plate to the corresponding 96 well ELISA plate, pre-filled with […] assay diluent in each well. Plates were sealed with microplate seals and kept at 4° C. overnight again. ELISA plates were brought to room temperature, followed by a 1 h incubation at 37° C. in the incubator. Detection Reagent A working solution was prepared by diluting Detection Reagent A 1:100 in Assay Reagent A. Liquid was then removed from the 96 well ELISA plate to add 100 μL Detection Reagent A working solution to each well. ELISA plates were covered with the plate sealer and incubated for 1 hour at 37° C. in the incubator. The 1× Wash buffer was prepared by diluting the 30× Wash Buffer Concentrate in H2O. Detection Reagent B working solution was prepared by diluting Detection Reagent B 1:100 in Assay Reagent B. The ELISA plates were washed three times with 350 μl wash buffer and afterwards inverted and blotted against absorbent paper to remove any liquid. 100 μL of Detection Reagent B working solution was added to each well of the ELISA plates, which are then covered with the plate sealer and incubated for 30 minutes at 37° C. in the incubator. After incubation the ELISA assay plates were washed five times with 350 μl wash buffer and were again inverted and blotted against absorbent paper to remove any remaining liquid. 90 μL of TMB Substrate was added to each well of the ELISA plates, which were then covered with the plate sealer and incubated for 15 minutes at 37° C. in the incubator. The reaction was stopped by adding 50 μL stop solution and absorbance was measured at 450 nm immediately.
For data evaluation and calculation, % control calculation of each well was based on the mean of high (cGAMP stimulated control) and mean of low (unstimulated control) controls by using the following standard 4 parameter logistic regression formula: […]
(In general: An ELISA detects its analyte on a solid surface through an enzyme-linked reagent.)

One may read the EC50 as the concentration at which the effect is half-maximal.

Turning to `CC(=O)N1CC2CCC1CN2c1ccc(-n2nc(-c3cccc4nn(C)cc34)c3cccc(C)c32)cn1` (stereo not shown) [Example 13, 1-[5-(5-{2′,7-dimethyl-1H,2′H-[3,4′-biindazol]-1-yl}pyridin-2-yl)-2,5-diazabicyclo[2.2.2]octan-2-yl]ethan-1-one], the “Delta TM, interaction with dog STING as determined by DSF (dDSF)” value in the experiment on dog STING (dSTING) turned out to be 28.3 °C. In the experiment with STING, the EC50 stood at 282 nM.
The like results for `Cc1cccc2c(-c3cccc4nn(C)cc34)nn(-c3ccc(N4C[C@@H]5CC[C@H]4C[C@@H]5C(=O)O)nc3)c12` (single isomer, unassigned) [Example 9] were, in that order, 33.8 °C and 652 nM.
